Source: ChEMBL document CHEMBL3992540, “Novel indolin-2-one-based sulfonamides as carbonic anhydrase inhibitors: Synthesis, in vitro biological evaluation against carbonic anhydrases isoforms I, II, IV and VII and molecular docking studies” (Eur J Med Chem, 2017)

Experiments:
Carbonic anhydrase 1 = Carbonic anhydrase 1 (Homo sapiens, UniProt P00915); assay: Inhibition of human recombinant carbonic anhydrase 1 incubated for 15 mins prior to testing by stopped-flow CO2 hydration assay
Carbonic anhydrase 2 = Carbonic anhydrase 2 (Homo sapiens, UniProt P00918); assay: Inhibition of human recombinant carbonic anhydrase 2 incubated for 15 mins prior to testing by stopped-flow CO2 hydration assay
Carbonic anhydrase 7 = Carbonic anhydrase 7 (Homo sapiens, UniProt P43166); assay: Inhibition of human recombinant carbonic anhydrase 7 incubated for 15 mins prior to testing by stopped-flow CO2 hydration assay
Chain of Carbonic anhydrase 7 (P43166 whole entry): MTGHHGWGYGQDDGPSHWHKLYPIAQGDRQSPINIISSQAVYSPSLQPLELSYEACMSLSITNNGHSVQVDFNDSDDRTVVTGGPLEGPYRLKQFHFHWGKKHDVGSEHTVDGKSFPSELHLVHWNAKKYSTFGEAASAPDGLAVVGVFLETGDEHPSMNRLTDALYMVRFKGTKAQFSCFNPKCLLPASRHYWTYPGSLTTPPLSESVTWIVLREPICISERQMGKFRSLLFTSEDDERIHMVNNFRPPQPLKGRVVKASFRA

Carbonic anhydrase 4 = Carbonic anhydrase 4 (Homo sapiens, UniProt P22748); assay: Inhibition of human recombinant carbonic anhydrase 4 incubated for 15 mins prior to testing by stopped-flow CO2 hydration assay
Chain of Carbonic anhydrase 4 (P22748 whole entry): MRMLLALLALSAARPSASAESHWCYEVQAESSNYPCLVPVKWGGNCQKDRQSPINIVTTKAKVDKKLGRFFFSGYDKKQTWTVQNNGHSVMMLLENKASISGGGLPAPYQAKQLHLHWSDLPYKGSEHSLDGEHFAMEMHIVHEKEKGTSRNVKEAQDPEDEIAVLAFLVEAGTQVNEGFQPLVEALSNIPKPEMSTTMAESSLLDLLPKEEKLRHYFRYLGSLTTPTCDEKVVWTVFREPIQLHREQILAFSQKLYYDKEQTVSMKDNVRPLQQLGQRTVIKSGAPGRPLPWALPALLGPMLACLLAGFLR

Chain of Carbonic anhydrase 1 (P00915 whole entry): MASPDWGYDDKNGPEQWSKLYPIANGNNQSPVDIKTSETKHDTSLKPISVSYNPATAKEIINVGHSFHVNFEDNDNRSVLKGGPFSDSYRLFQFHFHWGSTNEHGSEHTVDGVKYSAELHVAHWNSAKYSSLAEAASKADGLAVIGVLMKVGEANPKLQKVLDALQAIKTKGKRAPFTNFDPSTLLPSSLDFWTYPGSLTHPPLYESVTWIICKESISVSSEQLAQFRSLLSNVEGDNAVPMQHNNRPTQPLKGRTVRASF

Structure (SMILES) | Ki (Carbonic anhydrase 1) [nM] | Ki (Carbonic anhydrase 2) [nM] | Ki (Carbonic anhydrase 7) [nM] | Ki (Carbonic anhydrase 4) [nM]
NS(=O)(=O)c1ccc(CC/N=C2\NC(=O)/C(=C3/C(=O)Nc4ccccc43)S2)cc1 | 875 | 262 |  | 
CN1C(=O)/C(=N\CCc2ccc(S(N)(=O)=O)cc2)c2ccccc21 | 42 |  | 28.6 | 
NS(=O)(=O)c1ccc(CC/N=C2\C(=O)N(Cc3ccccc3)c3ccccc32)cc1 | 746 |  | 536 | 
NS(=O)(=O)c1ccc(CC/N=C2\NC(=O)/C(=C3/C(=O)Nc4ccc(Cl)cc43)S2)cc1 | 4450 | 302 |  | 
Cc1ccc2c(c1)/C(=C1/S/C(=N/CCc3ccc(S(N)(=O)=O)cc3)NC1=O)C(=O)N2 | 845 | 63.9 | 67.2 | 
CN1C(=O)/C(=N\CCc2ccc(S(N)(=O)=O)cc2)c2cc(Cl)ccc21 | 668 | 7.7 | 91 | 31.2
NS(=O)(=O)c1ccc(CC/N=C2\C(=O)N(Cc3ccccc3)c3ccc(Br)cc32)cc1 | 6150 |  |  | 
NS(=O)(=O)c1ccc(CC/N=C2\C(=O)Nc3ccc(Cl)cc32)cc1 | 64.1 |  |  | 
Cc1ccc2c(c1)/C(=N/CCc1ccc(S(N)(=O)=O)cc1)C(=O)N2 | 316 |  |  | 
CN1C(=O)/C(=N\CCc2ccc(S(N)(=O)=O)cc2)c2cc(Br)ccc21 | 64.9 | 5.9 |  | 
NS(=O)(=O)c1ccc(CC/N=C2\NC(=O)/C(=C3/C(=O)Nc4ccc([N+](=O)[O-])cc43)S2)cc1 | 265 | 28.6 |  | 
NS(=O)(=O)c1ccc(CC/N=C2\C(=O)Nc3ccc(Br)cc32)cc1 | 81.5 |  |  | 
COc1ccc2c(c1)/C(=N/CCc1ccc(S(N)(=O)=O)cc1)C(=O)N2 | 206 |  |  | 
NS(=O)(=O)c1ccc(CC/N=C2\C(=O)Nc3ccccc32)cc1 | 92.5 |  |  | 
NS(=O)(=O)c1ccc(CC/N=C2\NC(=O)/C(=C3/C(=O)Nc4ccc(Br)cc43)S2)cc1 | 3600 | 157 | 79.3 | 40.7
NS(=O)(=O)c1ccc(CC/N=C2\C(=O)N(Cc3ccccc3)c3ccc(Cl)cc32)cc1 | 8550 |  | > 10000 | 
Cc1cc(C)c2c(c1)/C(=N/CCc1ccc(S(N)(=O)=O)cc1)C(=O)N2 | 256 | 50.5 | 90.9 | 
NS(=O)(=O)c1ccc(CC/N=C2\NC(=O)CS2)cc1 | 93.9 | 6.6 | 13.2 | 79.4
